According to patent publication US20140088045A1, “PRODUCT COMPRISING A NICOTINE-CONTAINING MATERIAL AND AN ANTI-CANCER AGENT” (priority 2012, published 2014):

How the values were obtained:
[1] = Drug levels in lungs and plasma after inhalation vs oral gavage; format: in vivo, mice
From the text: The oral dose was 23 times higher than the inhalational dose.

A549 xenografts = test: A549 subcutaneous xenografts, PS V and curcumin; format: in vivo, female nude mice; settings: for inhibition of tumor growth (in words): A549 xenografts, daily treatment to day 36; for reduction in tumor weight: end of study, vs control
Procedure: Polymeric nanoparticles of poly(ε-caprolactone) (11000)-polyethylene glycol (5000) with entrapped curcumin were prepared according to the nanopercipitation-solvent displacement method. […] Then, the mice were inoculated subcutaneously on both flanks with […] cells (2×10^6 each). The treatment was resumed one day after tumor implantation and continued daily until the end of the study.

[2] = system: A549 human lung cancer cells; test: A549 subcutaneous xenografts, PS V and erlotinib; format: in vivo, nude mice; settings: by day 14; PS V 80 mg/kg ip, erlotinib 75 mg/kg po, 6 days/week; starting tumor volume subtracted
From the text: TO this end, we inoculated A549 human lung cancer cells subcutaneously into nude mice, following standard protocols.

NF-κB [3] = test: NF-κB activation in cultured cells by Electrophoretic Mobility Shift Assay (EMSA); format: cell-based, human; settings: cultured A549 cells; 1-2× its IC50 concentration for 6 h
NF-κB [4] = test: NF-κB activation in orthotopic xenografts by immunohistochemistry; format: in vivo, nude mice; settings: lung tissue of orthotopic A549 xenografts, PS V treatment as in Example 1
Procedure: We evaluated the effect of PS V on the activation of NF-κB, the master regulator of inflammation, in cultured A549 human lung cancer cells as well as in human lung cancer xenografts from the same cells.
We established orthotopic xenografts in nude mice as described in Example 1. Following treatment of the mice with PS V in a similar manner, lung tissue was evaluated by immunohistochemistry, following standard protocols. We used an antibody that assesses activation of NF-κB by phosphorylation (Cell Signaling, Danvers, Mass.). FIG. 10 provides inhibitory effect of PS V on the activation of NF-κB.

human cancer cells = test: Cytotoxicity to human cancer cells; format: cell-based; settings: intact PS V vs its three metabolites
inflammation = settings: applied systemically or topically; cited from earlier work
[5] = mouse, in vivo, inhaled or intranasal
Procedure: (§1) After 8 min of inhalation treatment, BALB/c nude mice were euthanized at various time points. Drug levels were analyzed by HPLC in plasma and lung tissues.

[6] = Pharmacokinetic parameters after inhalational administration (HPLC, lung and plasma); settings: after 8 min inhalation of PS V
Procedure: as §1

lung cancer = settings: pre-clinical models of lung cancer; cited from earlier work
[7] = Aerosolization of compounds added to smoking tobacco (filter capture, HPLC); format: physicochemical; settings: lit cigarette, alone or mixed with erlotinib
From the text: We used an experimental system that recapitulates the essential features of the act of smoking (FIG. 8). In this apparatus, smoke from the lit cigarette was drawn through the tubing of the apparatus by external suction. […] The aerosolized test drug was deposited onto this filter. At the conclusion of the study, the filter was removed and the deposited test drug was extracted with acetonitrile and subjected to HPLC analysis, as already described.
FIG. 8. depicts the apparatus for the aerosolization of anticancer compounds. Upper panel: The test compound is added to the cigarette. […] When the system was turned on, the temperature in the heating chamber reached ˜200° C. Heating energy was provided by the battery through a resistance wire inside the heating chamber. Unimpeded flow of the gas phase in the ceramic chamber was allowed by its design; the arrows depict such flow.

SMILES: CCOP(=O)(OCC)OCCCCOC(=O)CC1=C(C)/C(=C/c2ccc([S+](C)[O-])cc2)c2ccc(F)cc21 (stereo not drawn) [PS V, phospho-sulindac]
- total drug levels (PS V plus its metabolites) in lungs ([1]; inhalation 6.5 mg/kg compared to oral 150 mg/kg): significantly higher
- level of intact PS V in lungs ([1]; inhalational 6.5 mg/kg body weight): > 20 nmol/g
- level of intact PS V in lungs ([1]; oral 150 mg/kg body weight): < 2 nmol/g
- PS levels in plasma ([1]; plasma): undetectable
- inhibition of tumor growth (in words) (A549 xenografts): small inhibition of tumor growth
- average tumor volume at the end of the study (A549 xenografts; day 36, PS V 200 mg/kg/d, curcumin 500 mg/kg/d, control 521±76 mm^3): 419±36 mm^3
- reduction in tumor weight (A549 xenografts): 27%
- reduced tumor volume compared to controls [2]: 49%
- NF-κB activation (EMSA) (NF-κB [3]): suppressed NF-κB activation
- activation of NF-κB (phosphorylation, immunohistochemistry) (NF-κB [4]): suppresses the activation of NF-κB
- cytotoxicity compared with sulindac, sulindac sulfide XI and sulindac sulfone XII (human cancer cells): more cytotoxic
- effect on inflammation (inflammation): eliminated or greatly reduced inflammation

SMILES: CC1=C(CC(=O)O)c2cc(F)ccc2/C1=C\c1ccc(S(C)(=O)=O)cc1 [Sulindac sulfone XII, sulindac sulfone]
- Cmax [5]: 4.6 nmol/g

SMILES: CC1=C(CC(=O)O)c2cc(F)ccc2/C1=C\c1ccc([S+](C)[O-])cc1 (stereo not drawn) [Sulindac, sulindac]
- Tmax ([6]; lung): 0 h
- Tmax ([6]; plasma): 0 h

SMILES: COc1cc(/C=C/C(=O)CC(=O)/C=C/c2ccc(O)c(OC)c2)ccc1O [curcumin, reference compound]
- inhibition of tumor growth (in words) (A549 xenografts): ineffective
- reduction in tumor weight (A549 xenografts): not in the curcumin-treated group
- efficacy as a single agent (lung cancer): < 30%

SMILES: C#Cc1cccc(Nc2ncnc3cc(OCCOC)c(OCCOC)cc23)c1 [erlotinib, reference compound]
- reduced tumor volume compared to controls [2]: 74%

SMILES: CCOP(=O)(OCC)OCCCCOC(=O)c1ccccc1OC(C)=O [phospho-aspirin 119, phospho-aspirin]
- effect on inflammation (inflammation): eliminated or greatly reduced inflammation

SMILES: CCOP(=O)(OCC)OCCCCNC(=O)C(C)c1ccc(CC(C)C)cc1 (stereo not drawn) [phospho-ibuprofen amide IV, phospho-ibuprofen amide]
- aerosolization when added to smoking tobacco [7]: aerosolized successfully
